Experimental data reported in patent US11753407B2, “Compounds for treating spinal muscular atrophy” (PTC Therapeutics, Inc., priority 2012, dated 2023).
Counter-ions that a name gives are not always drawn.

What was measured:
[1] = test system: Smn protein in SMA patient fibroblast cells (GM03813); assay: Smn protein assay in cultured cells (SMN HTRF); format: cell-based, human; settings: SMA patient fibroblast cells, 48 hours; for EC1.5x for Smn protein expression: 7-point concentration curve, SMN HTRF, concentration producing 1.5 times Smn protein vs DMSO vehicle control; for maximum fold (Fold) increase of Smn protein: 7-point concentration data, fold relative to vehicle control
Outline: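 Fibroblasts, SMA patient; 5,000 cells/well; 7-pt curve, 3.16-fold serial dilution; 48 h, 37 °C, 5% CO2; RIPA lysis 1 h RT; anti-SMN d2 + kryptate overnight RT; HTRF 665/620 nm; fold vs DMSO; EC1.5×, max fold.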

[2] = test system: SMN2 minigene mRNA (SMN2-A minigene) in HEK293H cells; assay: SMN2 minigene mRNA splicing RT-qPCR assay in cultured cells; format: cell-based, human; settings: Homo sapiens, HEK293-H; concentration increasing full length SMN2 mRNA 1.5-fold relative to vehicle-treated cells; HEK293H cells with SMN2-A minigene, 24 hours, 7-point concentration data; read-out: EC1.5x for production of full length SMN2 mRNA
Outline: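 Stable SMN2-A minigene HEK293H; cpd 7-pt 3.16-fold series, 200× in DMSO, 24 h, 37 °C, n=2. Lysates → multiplex RT-qPCR (minigene FL + GAPDH), efficiency-corrected ΔΔCt vs vehicle. EC1.5× = 1.5-fold FL mRNA gain.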

SMILES: Cc1cn2nc(-c3cc(=O)n4cc(N5CCC(C)(NCCO)CC5)ccc4n3)cc2c(C)n1 [Compound 709, 2-(4,6-dimethylpyrazolo[1,5-a]pyrazin-2-yl)-7-{4-[(2-hydroxyethyl)amino]-4-methylpiperidin-1-yl}-4H-pyrido[1,2-a]pyrimidin-4-one]
- EC1.5x for Smn protein expression [1]: **** (an EC1.5x≤0.3 μM is indicated by four stars (****))
- maximum fold (Fold) increase of Smn protein [1]: ***** (a fold increase >1.65 is indicated by five stars (*****))
- melting point: 196 to 198 °C
- EC (1.5-fold increase) [2]: < 0.1 µM

SMILES: CCNC1(C)CCN(c2ccc3nc(-c4cc5c(C)nc(C)cn5n4)cc(=O)n3c2)CC1 [Compound 707, 2-(4,6-dimethylpyrazolo[1,5-a]pyrazin-2-yl)-7-[4-(ethylamino)-4-methylpiperidin-1-yl]-4H-pyrido[1,2-a]pyrimidin-4-one]
- EC1.5x for Smn protein expression [1]: **** (an EC1.5x≤0.3 μM is indicated by four stars (****))
- maximum fold (Fold) increase of Smn protein [1]: ***** (a fold increase >1.65 is indicated by five stars (*****))
- melting point: 187 to 189 °C
- EC (1.5-fold increase) [2]: < 0.1 µM

SMILES: CN[C@H]1CCN(c2ccc3nc(-c4ccc(OC)c(F)c4)cc(=O)n3c2)C1 [Compound 222, 2-(3-fluoro-4-methoxyphenyl)-7-[(3S)-3-(methylamino)pyrrolidin-1-yl]-4H-pyrido[1,2-a]pyrimidin-4-one]
- maximum fold (Fold) increase of Smn protein [1]: *** (a fold increase between >1.35 and ≤1.5 is indicated by three stars (***))
- melting point: 208 to 216 °C
- EC (1.5-fold increase) [2]: 0.3 to 1 µM

SMILES: COc1ccc(-c2cc(=O)n3cc(N(C)[C@@H]4CCN(C)C4)ccc3n2)cc1F [Cpd 239, 2-(3-fluoro-4-methoxyphenyl)-7-{methyl[(3R)-1-methylpyrrolidin-3-yl]amino}-4H-pyrido[1,2-a]pyrimidin-4-one]
- maximum fold (Fold) increase of Smn protein [1]: * (A maximum fold increase of ≤1.2 is indicated by one star (*))
- melting point: 143 to 149 °C
- EC (1.5-fold increase) [2]: 1 to 3 µM

SMILES: Cc1cn2cc(-c3cc(=O)n4cc(N5CCN(CCOCCO)[C@@H](C)C5)ccc4n3)cc(Cl)c2n1 [Compound 534, 2-(8-chloro-2-methylimidazo[1,2-a]pyridin-6-yl)-7-{(3S)-4-[2-(2-hydroxyethoxy)ethyl]-3-methylpiperazin-1-yl}-4H-pyrido[1,2-a]pyrimidin-4-one]
- EC1.5x for Smn protein expression [1]: **** (an EC1.5x≤0.3 μM is indicated by four stars (****))
- maximum fold (Fold) increase of Smn protein [1]: ***** (a fold increase >1.65 is indicated by five stars (*****))
- melting point: 201 to 205 °C
- EC (1.5-fold increase) [2]: < 0.1 µM

SMILES: CCc1nc(C)cn2nc(-c3cc(=O)n4cc(N5CCN(C6CC6)CC5)ccc4n3)cc12 [Compound 620, 7-(4-cyclopropylpiperazin-1-yl)-2-(4-ethyl-6-methylpyrazolo[1,5-a]pyrazin-2-yl)-4H-pyrido[1,2-a]pyrimidin-4-one]
- EC1.5x for Smn protein expression [1]: ** (an EC1.5× between >1 μM and ≤3 μM is indicated by two stars (**))
- maximum fold (Fold) increase of Smn protein [1]: *** (a fold increase between >1.35 and ≤1.5 is indicated by three stars (***))
- melting point: 258 to 260 °C
- EC (1.5-fold increase) [2]: 0.3 to 1 µM

SMILES: O=c1cc(-c2cccc(Cl)c2)nc2ccc(N3CCNCC3)cn12 [Compound 41, 2-(3-chlorophenyl)-7-(piperazin-1-yl)-4H-pyrido[1,2-a]pyrimidin-4-one]
- maximum fold (Fold) increase of Smn protein [1]: *** (a fold increase between >1.35 and ≤1.5 is indicated by three stars (***))
- melting point: 185 to 189 °C
- EC (1.5-fold increase) [2]: 0.3 to 1 µM

SMILES: COc1ccc(-c2cc(=O)n3cc(N4CCC(N(C)C)CC4)ccc3c2)cc1F (as salt: acetate) [Compound 203, 7-[4-(dimethylamino)piperidin-1-yl]-2-(3-fluoro-4-methoxyphenyl)-4H-quinolizin-4-one]
- melting point: 188 to 192 °C

SMILES: O=c1cc(-c2cc(F)c(O)c(F)c2)nc2ccc(N3CCNCC3)cn12 (as salt: hydrochloride) [Compound 71, 2-(3,5-difluoro-4-hydroxyphenyl)-7-(piperazin-1-yl)-4H-pyrido[1,2-a]pyrimidin-4-one]
- melting point: 290 °C (dec.)

SMILES: Cn1ncc2cc(-c3cc(=O)n4cc(C5=CCN(CCO)CC5)ccc4n3)ccc21 [Compound 471, 7-[1-(2-hydroxyethyl)-1,2,3,6-tetrahydropyridin-4-yl]-2-(1-methyl-1H-indazol-5-yl)-4H-pyrido[1,2-a]pyrimidin-4-one]
- EC1.5x for Smn protein expression [1]: **** (an EC1.5x≤0.3 μM is indicated by four stars (****))
- maximum fold (Fold) increase of Smn protein [1]: ***** (a fold increase >1.65 is indicated by five stars (*****))
- EC (1.5-fold increase) [2]: < 0.1 µM

SMILES: CCN1CC=C(c2cc(C)c3nc(-c4cc5c(C)nc(C)cn5n4)cc(=O)n3c2)CC1 [Compound 482, 2-(4,6-dimethylpyrazolo[1,5-a]pyrazin-2-yl)-7-(1-ethyl-1,2,3,6-tetrahydropyridin-4-yl)-9-methyl-4H-pyrido[1,2-a]pyrimidin-4-one]
- EC1.5x for Smn protein expression [1]: * (An EC1.5× for Smn protein expression between >3 μM and ≤10 μM is indicated by one star (*))
- maximum fold (Fold) increase of Smn protein [1]: *** (a fold increase between >1.35 and ≤1.5 is indicated by three stars (***))
- EC (1.5-fold increase) [2]: < 0.1 µM

SMILES: CCc1nc(C)cn2nc(-c3cc(=O)n4cc(N5CC[C@@H](N(C)C)C5)cc(C)c4n3)cc12 [Compound 822, 7-[(3R)-3-(dimethylamino)pyrrolidin-1-yl]-2-(4-ethyl-6-methylpyrazolo[1,5-a]pyrazin-2-yl)-9-methyl-4H-pyrido[1,2-a]pyrimidin-4-one]
- EC1.5x for Smn protein expression [1]: *** (an EC1.5× between >0.3 μM and ≤1 μM is indicated by three stars (***))
- maximum fold (Fold) increase of Smn protein [1]: **** (a fold increase between >1.5 and ≤1.65 is indicated by four stars (****))
- EC (1.5-fold increase) [2]: 0.1 to 0.3 µM

SMILES: Cc1cn2nc(-c3cc(=O)n4cc(N5CCCN(C)CC5)cc(C)c4n3)cc2c(C)n1 [Compound 520, 2-(4,6-dimethylpyrazolo[1,5-a]pyrazin-2-yl)-9-methyl-7-(4-methyl-1,4-diazepan-1-yl)-4H-pyrido[1,2-a]pyrimidin-4-one]
- EC1.5x for Smn protein expression [1]: **** (an EC1.5x≤0.3 μM is indicated by four stars (****))
- maximum fold (Fold) increase of Smn protein [1]: **** (a fold increase between >1.5 and ≤1.65 is indicated by four stars (****))
- EC (1.5-fold increase) [2]: 0.1 to 0.3 µM

SMILES: Cc1cn2cc(-c3cc(=O)n4cc(C5(O)CCNCC5)ccc4n3)cc(F)c2n1 [Compound 811, 2-(8-fluoro-2-methylimidazo[1,2-a]pyridin-6-yl)-7-(4-hydroxypiperidin-4-yl)-4H-pyrido[1,2-a]pyrimidin-4-one]
- EC1.5x for Smn protein expression [1]: *** (an EC1.5× between >0.3 μM and ≤1 μM is indicated by three stars (***))
- maximum fold (Fold) increase of Smn protein [1]: ***** (a fold increase >1.65 is indicated by five stars (*****))
- EC (1.5-fold increase) [2]: 0.3 to 1 µM

SMILES: CCN1CCN(c2cc(C)c3nc(-c4cc5c(C)nc(C)cn5n4)cc(=O)n3c2)CC1 [Compound 508, 2-(4,6-dimethylpyrazolo[1,5-a]pyrazin-2-yl)-7-(4-ethylpiperazin-1-yl)-9-methyl-4H-pyrido[1,2-a]pyrimidin-4-one]
- EC1.5x for Smn protein expression [1]: *** (an EC1.5× between >0.3 μM and ≤1 μM is indicated by three stars (***))
- maximum fold (Fold) increase of Smn protein [1]: **** (a fold increase between >1.5 and ≤1.65 is indicated by four stars (****))
- EC (1.5-fold increase) [2]: < 0.1 µM

SMILES: Cc1nc2ccc(-c3cc(=O)n4cc(N5C[C@H]6CNC[C@H]6C5)ccc4n3)cc2o1 [Compound 243, 7-[(3aR,6aS)-hexahydropyrrolo[3,4-c]pyrrol-2(1H)-yl]-2-(2-methyl-1,3-benzoxazol-6-yl)-4H-pyrido[1,2-a]pyrimidin-4-one]
- EC1.5x for Smn protein expression [1]: **** (an EC1.5x≤0.3 μM is indicated by four stars (****))
- maximum fold (Fold) increase of Smn protein [1]: **** (a fold increase between >1.5 and ≤1.65 is indicated by four stars (****))
- EC (1.5-fold increase) [2]: < 0.1 µM

SMILES: Cc1cn2cc(-c3cc(=O)n4cc(N5CCN[C@@H](C)C5)ccc4n3)ccc2n1 [Compound 115, 2-(2-methylimidazo[1,2-a]pyridin-6-yl)-7-[(3S)-3-methylpiperazin-1-yl]-4H-pyrido[1,2-a]pyrimidin-4-one]
- EC1.5x for Smn protein expression [1]: **** (an EC1.5x≤0.3 μM is indicated by four stars (****))
- maximum fold (Fold) increase of Smn protein [1]: **** (a fold increase between >1.5 and ≤1.65 is indicated by four stars (****))
- EC (1.5-fold increase) [2]: < 0.1 µM

SMILES: CN1CCN(c2cn3c(=O)cc(-c4ccc5nn(C)cc5c4)nc3cn2)CC1 [Compound 589, 2-(2-methyl-2H-indazol-5-yl)-7-(4-methylpiperazin-1-yl)-4H-pyrazino[1,2-a]pyrimidin-4-one]
- EC1.5x for Smn protein expression [1]: *** (an EC1.5× between >0.3 μM and ≤1 μM is indicated by three stars (***))
- maximum fold (Fold) increase of Smn protein [1]: **** (a fold increase between >1.5 and ≤1.65 is indicated by four stars (****))
- EC (1.5-fold increase) [2]: 0.1 to 0.3 µM
